These results are taken from US10966957B2, “Method of treating cancer with combinations of histone deacetylase inhibitors (HDAC1) substances” (Research Cancer Institute of America, priority 2011, dated 2021).

The test system of series [1] is MBT-2 bladder transitional cell carcinoma, B16-F10 melanoma and LL/2 Lewis lung carcinoma. The following applies: depending on concentrations; cited from earlier work.
Series [2] relates to tyrosine kinase. The following applies: measured in 11 subjects; cited from earlier work.
Series [3] has as its system human squamous cell carcinoma line. The following applies: injected interperitoneally; minimal effects on surrounding normal cells; cited from earlier work.
In series [4] the test system is cancer deemed no longer treatable by conventional methods. To be noted: cited from earlier work.
Series [5] deals with acites tumor cells. The following applies: injected peritoneally; cited from earlier work.
In series [6] the test system is patients with cancer. Format: in vivo, human. The following applies: octreotide subcutaneously at 50-400 mcgs.
Description: As of October 2011, 40 patient charts were selected randomly and reviewed. The inclusion criteria were diagnosis of cancer. No patients were excluded. Patients were aged 27 to 83 years. All were diagnosed by their oncologist/physician and were offered standard conventional treatment of surgery, traditional chemotherapy or radiation.
The patients were managed based on unique developed protocols that were designed in correlation with available research studies and clinical trials that implicate using specific natural and synthetic IV therapies. IV therapies are targeted at epigenetic level and consist of antioxidants, quercetin, DCA, sodium phenyl butyrate, and lipoic acid separately or in combination. All patients received one or more of such treatments. […] Doses of each treatment remained the same or close on each treatment, Quercetin was given intravenously at the dose 0.5 to 1.0 gram (50 mg/ml).
The progression of disease was measures during the course of treatment through tumor markers, Imaging studies and markers for cancer growth, necrosis, LDH, and inflammation, CRP, as well as the Natural killer cell activity or lymphocyte count and Circulatory tumor cells.
For series [7], the system named is refractory solid tumor malignancies. To be noted: cited from earlier work.
Series [8] concerns prostate cancer cells. The following applies: cited from earlier work.

Where only a bound is given, the exact number is not on record here.

Consider `O=C(O)CCCCC1CCSS1` (centres unmarked) [Lipoic acid], for which the “Reduction of cell number” value in series [1] is on record as 10-50%.

Consider `O=c1c(O)c(-c2ccc(O)c(O)c2)oc2cc(O)cc(O)c12` [Quercetin], for which the “Subjects with a decrease in tyrosine kinase levels” value in series [2] is 9. Also, the “Inhibition of cancer growth” value in series [3] is given as “selective inhibition of cancer growth”. Besides, the “Dose recommended for phase 2 studies” value in series [4] (intravenous) is recorded as no more than 1400 mg/m2. The “Patients with sustained decreases in unique cancer markers” value in series [4] (of 50 patients, metastatic hepatocellular carcinoma and stage 4 metastatic ovarian cancer) is given as “two”. Also, the “Suppression as defined by the radiological criteria of WHO” value in series [4] (up to 1700 mg/m2 intravenous for 3 weeks, 50 patients) is “None of the patients achieved suppression”. Besides, in series [5], the Increase in lifespan is recorded as 20%.

On to Octreotide, for which, in series [6], the “Lowering of IgF-1 by octreotide in the protocols” value was “lowering the IgF-1 significantly”.

For Sodium phenylbutyrate [SPB], the “Toxicity of oral doses” value in series [7] (oral doses up to 36 grams per day) is “minimal toxicity”. Moreover, in series [7] (oral), the “Patients with stable disease for more than 6 months while on the drug” value is 25%. In addition, in series [8], the “Potency relative to phenylacetate” value is “more potent than phenylacetate”.
